Experimental data taken from patent US20030194434A1, “Bubbling tablet, bubbling bath additive tablet, bubbling washing detergent tablet, bubbling tablet for oral administration, and process for producing these” (priority 2000, published 2003).

Assay: Kinetic viscosity of saccharide solution, Ubbelohde viscosimeter, Japanese Pharmacopoeia 13th edition
Assay type: physicochemical
Settings: 0.5 g of component dissolved in 50 ml of water (25° C.)
Protocol: The value shown after each component in parenthesis is the kinetic viscosity of the solution in which 0.5 g of each component is dissolved in 50 ml of water (25° C.).

SMILES	kinetic viscosity [cSt]
OC[C@H]1O[C@@](CO)(O[C@H]2O[C@H](CO)[C@@H](O)[C@H](O)[C@H]2O)[C@@H](O)[C@@H]1O [sucrose]	0.912
OC[C@@H](O)[C@@H](O)[C@H](O)[C@H](O)CO [mannitol]	0.896
OC[C@H]1O[C@H](O[C@H]2O[C@H](CO)[C@@H](O)[C@H](O)[C@H]2O)[C@H](O)[C@@H](O)[C@@H]1O [trehalose]	0.891
OC[C@@H](O)[C@@H](O[C@H]1O[C@H](CO)[C@@H](O)[C@H](O)[C@H]1O)[C@H](O)[C@@H](O)CO [maltitol]	0.904
OC[C@@H](O)[C@H](O)[C@@H](O)CO [xylitol]	0.904
OC[C@@H](O)[C@@H](O)[C@H](O)[C@@H](O)CO [sorbitol]	0.897
